In patent publication US20100029509A1, “NOVEL METHODS” (NATURAL ENVIRONMENT RESEARCH COUNCIL, priority 2006, published 2010):

Key:
[1] = test system: Pu promoter activity; assay: Catabolic repression of Pu activity in ADP1_pu_lux_xylR grown in minimal medium; assay type: cell-based, Acinetobacter baylyi ADP1
Method: Pu promoter activity was monitored by measuring relative bioluminescence (bioluminescence divided by OD600). For each measurement, at each time point 100 μl samples were analyzed in triplicate in a well of a black, clear-bottom 96-well microplate (Fisher Scientific). At OD600 and Bioluminescence were measured using a Synergy HT Multi-Detection Microplate Reader (Bio-Tek™). To examine the effect of catabolic repression Acinetobacter sp. ADP1_pu_lux_xylR was inoculated into 5 ml MM supplemented with 50 mM glucose or succinate as a sole carbon source in a 30-ml glass universal tube. […] The bacterial samples were incubated at 28° C. shaker with shaking at 150 rpm. […] For each treatment, three replicates were carried out. Samples were taken and measured for bioluminescence and OD600 every 30 min.

[2] = test system: xylR/Pu regulation system (Pu promoter activity); assay: Induction of Pu promoter (relative bioluminescence, luxCDABE reporter) in Acinetobacter ADP1_pu_lux_xylR; assay type: cell-based, Acinetobacter baylyi ADP1; details: for Induction of Pu promoter: ADP1_pu_lux_xylR, inducer 100 μM in LB, following 30 hrs incubation; for Induction of Pu promoter activity: strain ADPWH_Pu_lux_xylR, bioluminescence from lux genes
Method: Pu promoter activity was monitored by measuring relative bioluminescence (bioluminescence divided by OD600). For each measurement, at each time point 100 μl samples were analyzed in triplicate in a well of a black, clear-bottom 96-well microplate (Fisher Scientific). At OD600 and Bioluminescence were measured using a Synergy HT Multi-Detection Microplate Reader (Bio-Tek™).
A single colony of Acinetobacter sp. ADP_pu_lux_xylR was separately inoculated into 5 ml LB medium in a 30-ml glass universal tube. Toluene, o-, m-, p-xylenes, phenol, benzene, naphthalene, 2-, 3-, or 4-hydroxybenzoic, benzoate or catechol was added into LB (100 μM) to assay induction of Pu. Samples were incubated at 20, 28, 30, 34 or 37° C. with shaking at 150 rpm. Samples were repeatedly loaded on black 96-well microplate for bioluminescence and OD600 measurement for 30 hours of incubation.

[3] = test system: salA promoter operably linked to the lux genes; details: LB + 6 μg/ml tetracycline + 2 mM salicylate, FIG. 11
[4] = test system: xylR/Pu regulation system (Pu promoter activity); assay: Induction of Pu promoter (relative bioluminescence, luxCDABE reporter) in Acinetobacter ADP1_pu_lux_xylR; assay type: cell-based, Acinetobacter baylyi ADP1; details: ADP1_Pu_lux_xylR on LB agar with 10 mM glucose, FIG. 1B; uninduced cells remained dark

6-phosphogluconic acid trisodium salt [6-phosphogluconate, reference compound]
Effect on Pu activity of added candidate repression signal molecule ([1]; added to MM-glucose at 0.1-300 μM after maximal induction by m-xylene, data not shown): did not affect Pu activity

O=C(O)c1ccccc1O [2-hydroxybenzoic (salicylic acid), salicylic acid]
Induction of Pu promoter [2]: cannot be induced

O=C(O)c1cccc(O)c1 [3-hyroxybenzoic]
Induction of Pu promoter [2]: cannot be induced

O=C(O)c1ccc(O)cc1 [4-hydroxybenzoic]
Induction of Pu promoter [2]: cannot be induced

c1ccccc1 [benzene]
Induction of Pu promoter [2]: cannot be induced

O=C(O)c1ccccc1 [benzoate]
Induction of Pu promoter [2]: cannot be induced

Oc1ccccc1O [catechol]
Induction of Pu promoter [2]: cannot be induced

Cc1cccc(C)c1 [m-xylene]
Induction of Pu promoter activity [2]: can be induced

c1ccc2ccccc2c1 [naphthalene]
Induction of Pu promoter [2]: cannot be induced

Cc1ccccc1C [o-xylene]
Induction of Pu promoter activity [2]: can be induced

Cc1ccc(C)cc1 [p-xylene]
Induction of Pu promoter activity [2]: can be induced

Oc1ccccc1 [phenol]
Induction of Pu promoter [2]: cannot be induced

O=C(O)c1ccccc1O [salicylate]
Activation by salicylate, Transformant B (negative) [3]: not activated

O=C(O)CCC(=O)O [succniate, succinate]
Repression of Pu activity by sole carbon source ([1]; minimal medium with 50 mM carbon source, toluene, m-, p- or o-xylene 500 μM as inducers, 28° C., FIG. 3A): did

Cc1ccccc1 [toluene]
Induction of Pu promoter activity [2]: can be induced

xylene
Bioluminescence on agar medium when induced by vapors [4]: strong bioluminescence
